{"source": "patent US20180098977A1", "about": "“SCALABLE MICROPARTICULATE FORMULATIONS CONTAINING POLYMORPHIC NIMODIPINE FORM 2 PREPARED BY A SOLVENT EVAPORATION PROCESS” (Edge Therapeutics, Inc., priority 2016, published 2018)", "key": {"[1]": {"test_system": "subjects with an aneurysmal subarachnoid hemorrhage (aSAH)", "assay": "NEWTON Phase 1/2 study, efficacy and safety", "format": "in vivo, human", "text": "NEWTON (Nimodipine microparticles to Enhance recovery While reducing TOxicity after subarachNoid hemorrhage) was a multicenter, randomized, controlled, open-label Phase 1/2 study evaluating the safety, tolerability and pharmacokinetics of escalating doses of a polymeric nimodipine microparticle suspended in a diluent of hyaluronic acid (EG-1962) compared to the current standard of care, oral nimodipine, in subjects with an aneurysmal subarachnoid hemorrhage (aSAH).\nFifty-four patients were randomized to receive EG-1962 and 18 patients were randomized to receive oral nimodipine.\nThe primary endpoint was to establish the maximum tolerated dose, which has been determined to be 800 mg. […] The secondary endpoint of characterizing the pharmacokinetics of EG-1962 was also met. The steady-state plasma concentration measured in patients treated with EG-1962 was below 30 ng/ml, the level of plasma concentration observed to cause systemic hypotension."}, "[2]": {"conditions": "at 25° C.; cited from earlier work"}}}
{"smiles": "COCCOC(=O)C1=C(C)NC(C)=C(C(=O)OC(C)C)C1c1cccc([N+](=O)[O-])c1", "note": "(stereo not shown) [nimodipine, isopropyl(2-methoxyethyl)-1,4-dihydro-2,6-dimethyl-4-(3-nitrophenyl)-3,5-pyridinedicarboxylate]", "values": [{"measurement": "patients who achieved a favorable outcome (scores of 6-8, Extended Glasgow Outcome Score [GOSE])", "setting": "[1]; at 90 days, pooled efficacy results", "value": 28, "unit": "%"}, {"measurement": "patients who experienced drug-related hypotension", "setting": "[1]; human, in vivo", "value": 17, "unit": "%"}]}
{"smiles": "COCCOC(=O)C1=C(C)NC(C)=C(C(=O)OC(C)C)C1c1cccc([N+](=O)[O-])c1", "note": "(stereo not shown) [Mod II, Nimodipine]", "values": [{"measurement": "solubility in water", "setting": "[2]", "value": "0.018±0.004", "unit": "mg 100 mL^−1"}]}
{"smiles": "COCCOC(=O)C1=C(C)NC(C)=C(C(=O)OC(C)C)C1c1cccc([N+](=O)[O-])c1", "note": "(racemic) [Mod I, Nimodipine]", "values": [{"measurement": "solubility in water", "setting": "[2]", "value": "0.036±0.007", "unit": "mg 100 mL^−1"}]}
